Data: ChEMBL document CHEMBL1128492, “Effect of lipophilicity at N-1 on activity of fluoroquinolones against mycobacteria” (J Med Chem, 1995)
≈ marks a conversion by molar mass, not a printed value.

Tests used:
Streptococcus pyogenes = experiment: Minimum inhibitory concentration against gram-positive Streptococcus pyogenes C203 (SP1-1); assay type: functional
Escherichia coli = experiment: Minimum inhibitory concentration against gram-negative Escherichia coli Vogel (EC-1); assay type: functional
Pseudomonas aeruginosa = experiment: Minimum inhibitory concentration against gram-negative Pseudomonas aeruginosa U1-18 (PA-7); assay type: functional
[1] = Dissociation constant (pKa1)
Staphylococcus aureus = experiment: Minimum inhibitory concentration against gram-positive Staphylococcus aureus H-228 (SA-13); assay type: functional
[2] = tested on: Mycolicibacterium smegmatis; experiment: Minimum inhibitory concentration against Mycobacterium smegmatis; assay type: functional
[3] = tested on: Mycolicibacterium fortuitum; experiment: Minimum inhibitory concentration against Mycobacterium fortuitum; assay type: functional
[4] = Dissociation constant (pKa2)

Structure (SMILES) | MIC (Streptococcus pyogenes) | MIC (Escherichia coli) | MIC (Pseudomonas aeruginosa) | pKa [1] | MIC (Staphylococcus aureus) | MIC [2] | MIC [3] | pKa [4]
CC1CN(c2cc3c(cc2F)c(=O)c(C(=O)O)cn3-c2ccc(F)cc2F)CC(C)N1 (configuration not stated) | 0.8 µg/mL (≈ 1.85 µM) | 0.4 µg/mL (≈ 0.927 µM) | 0.8 µg/mL (≈ 1.85 µM) | 5.94 | 0.4 µg/mL (≈ 0.927 µM) | 0.5 µg/mL (≈ 1.16 µM) | 0.25 µg/mL (≈ 0.579 µM) | 8.26
Cc1ccc(-n2cc(C(=O)O)c(=O)c3cc(F)c(N4CCNCC4)cc32)c(C)c1 | > 3.1 µg/mL | 0.8 µg/mL (≈ 2.02 µM) | 3.1 µg/mL (≈ 7.84 µM) |  | > 3.1 µg/mL | 32 µg/mL (≈ 80.9 µM) | 16 µg/mL (≈ 40.5 µM) | 
O=C(O)c1cn(-c2ccc(F)cc2F)c2cc(N3CCNCC3)c(F)cc2c1=O | 0.4 µg/mL (≈ 0.992 µM) | 0.1 µg/mL (≈ 0.248 µM) | 0.2 µg/mL (≈ 0.496 µM) | 5.87 | 0.4 µg/mL (≈ 0.992 µM) | 0.5 µg/mL (≈ 1.24 µM) | 0.25 µg/mL (≈ 0.62 µM) | 8.31
Cc1cc(F)ccc1-n1cc(C(=O)O)c(=O)c2cc(F)c(N3CCNCC3)cc21 | 1.6 µg/mL (≈ 4.01 µM) | 0.2 µg/mL (≈ 0.501 µM) | 0.4 µg/mL (≈ 1 µM) | 6.11 | 0.8 µg/mL (≈ 2 µM) | 4 µg/mL (≈ 10 µM) | 1 µg/mL (≈ 2.5 µM) | 8.37
O=C(O)c1cn(-c2ccccc2)c2cc(N3CCNCC3)c(F)cc2c1=O | 3.1 µg/mL (≈ 8.44 µM) | 0.1 µg/mL (≈ 0.272 µM) | 0.8 µg/mL (≈ 2.18 µM) |  | 0.8 µg/mL (≈ 2.18 µM) | 2 µg/mL (≈ 5.44 µM) | 0.5 µg/mL (≈ 1.36 µM) | 
O=C(O)c1cn(C2CC2)c2cc(N3CCNCC3)c(F)cc2c1=O [CIPROFLOXACIN] | 0.4 µg/mL (≈ 1.21 µM) |  | 0.2 µg/mL (≈ 0.604 µM) |  |  | 0.25 µg/mL (≈ 0.754 µM) | 0.06 µg/mL (≈ 0.181 µM) | 
Cc1ccccc1-n1cc(C(=O)O)c(=O)c2cc(F)c(N3CC(C)NC(C)C3)cc21 (configuration not stated) | > 3.1 µg/mL | 1.6 µg/mL (≈ 3.91 µM) | > 3.1 µg/mL | 6.01 | > 3.1 µg/mL | 8 µg/mL (≈ 19.5 µM) | 1 µg/mL (≈ 2.44 µM) | 8.55
CC1CN(c2cc3c(cc2F)c(=O)c(C(=O)O)cn3-c2ccccc2F)CC(C)N1 (configuration not stated) | 3.1 µg/mL (≈ 7.5 µM) | 0.4 µg/mL (≈ 0.968 µM) | 1.6 µg/mL (≈ 3.87 µM) | 5.88 | 1.6 µg/mL (≈ 3.87 µM) | 2 µg/mL (≈ 4.84 µM) | 0.5 µg/mL (≈ 1.21 µM) | 8.51
Cc1ccc(-n2cc(C(=O)O)c(=O)c3cc(F)c(N4CCNCC4)cc32)c(F)c1 | 3.1 µg/mL (≈ 7.76 µM) | 0.2 µg/mL (≈ 0.501 µM) | 1.6 µg/mL (≈ 4.01 µM) | 5.96 | 1.6 µg/mL (≈ 4.01 µM) | 2 µg/mL (≈ 5.01 µM) | 1 µg/mL (≈ 2.5 µM) | 8.34
Cc1c(F)ccc(-n2cc(C(=O)O)c(=O)c3cc(F)c(N4CC(C)NC(C)C4)cc32)c1F (configuration not stated) | > 3.1 µg/mL | 3.1 µg/mL (≈ 6.96 µM) | > 3.1 µg/mL | 5.94 | 1.6 µg/mL (≈ 3.59 µM) | 4 µg/mL (≈ 8.98 µM) | 1 µg/mL (≈ 2.24 µM) | 8.47
Cc1ccc(-n2cc(C(=O)O)c(=O)c3cc(F)c(N4CCNCC4)cc32)cc1 | > 3.1 µg/mL | 0.4 µg/mL (≈ 1.05 µM) | 1.6 µg/mL (≈ 4.19 µM) |  | 3.1 µg/mL (≈ 8.13 µM) | 4 µg/mL (≈ 10.5 µM) | 2 µg/mL (≈ 5.24 µM) | 
CC1CN(c2cc3c(cc2F)c(=O)c(C(=O)O)cn3-c2ccc(Cl)cc2Cl)CC(C)N1 (configuration not stated) | > 3.1 µg/mL | 1.6 µg/mL (≈ 3.45 µM) | > 3.1 µg/mL | 5.75 | > 3.1 µg/mL | 4 µg/mL (≈ 8.61 µM) | 2 µg/mL (≈ 4.31 µM) | 8.37
Cc1ccccc1-n1cc(C(=O)O)c(=O)c2cc(F)c(N3CCNCC3)cc21 | > 3.1 µg/mL | 0.4 µg/mL (≈ 1.05 µM) | 1.6 µg/mL (≈ 4.19 µM) | 5.98 | 3.1 µg/mL (≈ 8.13 µM) | 8 µg/mL (≈ 21 µM) | 4 µg/mL (≈ 10.5 µM) | 8.59
CC1CN(c2cc3c(cc2F)c(=O)c(C(=O)O)cn3-c2ccccc2)CC(C)N1 (configuration not stated) | 3.1 µg/mL (≈ 7.84 µM) | 0.4 µg/mL (≈ 1.01 µM) | 1.6 µg/mL (≈ 4.05 µM) | 6.12 | 1.6 µg/mL (≈ 4.05 µM) | 4 µg/mL (≈ 10.1 µM) | 2 µg/mL (≈ 5.06 µM) | 8.58
O=C(O)c1cn(-c2ccc(Cl)cc2Cl)c2cc(N3CCNCC3)c(F)cc2c1=O | > 3.1 µg/mL | 0.4 µg/mL (≈ 0.917 µM) | 3.1 µg/mL (≈ 7.11 µM) |  | > 3.1 µg/mL | 4 µg/mL (≈ 9.17 µM) | 2 µg/mL (≈ 4.58 µM) | 
Cc1ccc(-n2cc(C(=O)O)c(=O)c3cc(F)c(N4CC(C)NC(C)C4)cc32)c(F)c1 (configuration not stated) | > 3.1 µg/mL | 0.8 µg/mL (≈ 1.87 µM) | 3.1 µg/mL (≈ 7.25 µM) |  | 3.1 µg/mL (≈ 7.25 µM) | 2 µg/mL (≈ 4.68 µM) | 1 µg/mL (≈ 2.34 µM) | 
CC1CN(c2cc3c(cc2F)c(=O)c(C(=O)O)cn3-c2ccc(F)cc2)CC(C)N1 (configuration not stated) | 0.8 µg/mL (≈ 1.94 µM) | 0.2 µg/mL (≈ 0.484 µM) | 0.8 µg/mL (≈ 1.94 µM) |  | 0.4 µg/mL (≈ 0.968 µM) | 1 µg/mL (≈ 2.42 µM) | 0.25 µg/mL (≈ 0.605 µM) | 
Cc1ccc(-n2cc(C(=O)O)c(=O)c3cc(F)c(N4CC(C)NC(C)C4)cc32)c(C)c1 (configuration not stated) | > 3.1 µg/mL | 3.1 µg/mL (≈ 7.32 µM) | > 3.1 µg/mL | 6.05 | > 3.1 µg/mL | 16 µg/mL (≈ 37.8 µM) | 4 µg/mL (≈ 9.45 µM) | 8.24
Cc1ccc(-n2cc(C(=O)O)c(=O)c3cc(F)c(N4CC(C)NC(C)C4)cc32)cc1 (configuration not stated) | > 3.1 µg/mL | 0.8 µg/mL (≈ 1.95 µM) | 3.1 µg/mL (≈ 7.57 µM) | 6.1 | 3.1 µg/mL (≈ 7.57 µM) | 4 µg/mL (≈ 9.77 µM) | 1 µg/mL (≈ 2.44 µM) | 8.61
Cc1c(F)ccc(-n2cc(C(=O)O)c(=O)c3cc(F)c(N4CCNCC4)cc32)c1F | 3.1 µg/mL (≈ 7.43 µM) | 0.8 µg/mL (≈ 1.92 µM) | 3.1 µg/mL (≈ 7.43 µM) | 5.87 | 1.6 µg/mL (≈ 3.83 µM) | 8 µg/mL (≈ 19.2 µM) | 0.5 µg/mL (≈ 1.2 µM) | 8.54
O=C(O)c1cn(-c2ccccc2F)c2cc(N3CCNCC3)c(F)cc2c1=O | 1.6 µg/mL (≈ 4.15 µM) | 0.1 µg/mL (≈ 0.259 µM) | 0.8 µg/mL (≈ 2.08 µM) |  | 0.8 µg/mL (≈ 2.08 µM) | 2 µg/mL (≈ 5.19 µM) | 0.25 µg/mL (≈ 0.649 µM) | 
O=C(O)c1cn(-c2ccc(F)cc2)c2cc(N3CCNCC3)c(F)cc2c1=O [SARAFLOXACIN] | 0.4 µg/mL (≈ 1.04 µM) | 0.1 µg/mL (≈ 0.259 µM) | 0.2 µg/mL (≈ 0.519 µM) | 6.02 | 0.4 µg/mL (≈ 1.04 µM) | 1 µg/mL (≈ 2.59 µM) | 0.25 µg/mL (≈ 0.649 µM) | 8.59
Cc1cc(F)ccc1-n1cc(C(=O)O)c(=O)c2cc(F)c(N3CC(C)NC(C)C3)cc21 (configuration not stated) | > 3.1 µg/mL | 0.4 µg/mL (≈ 0.936 µM) | 1.6 µg/mL (≈ 3.74 µM) | 6.16 | 1.6 µg/mL (≈ 3.74 µM) | 2 µg/mL (≈ 4.68 µM) | 2 µg/mL (≈ 4.68 µM) | 8.16
C[C@@H]1CN(c2c(F)c(N)c3c(=O)c(C(=O)O)cn(C4CC4)c3c2F)C[C@H](C)N1 [SPARFLOXACIN] | 0.1 µg/mL (≈ 0.255 µM) | 0.025 µg/mL (≈ 0.0637 µM) | 0.8 µg/mL (≈ 2.04 µM) |  | 0.05 µg/mL (≈ 0.127 µM) | 0.13 µg/mL (≈ 0.331 µM) | 0.06 µg/mL (≈ 0.153 µM) | 
